Reference: publication PMC8170132, “Kinetics of Abacavir-Induced Remodelling of the Major Histocompatibility Complex Class I Peptide Repertoire” (Frontiers in Immunology, 2021)

Columns and labels:
HLA-B*57:01 [1] = target: T1, HLA-B*57:01 (Homo sapiens, UniProt P01889, D201E/D98Y/E176V/E187L/E204Q/E69M/E70A/G107R/I90N/K202T/L105A/L119I/N104I/N87E/Q89R/Q94S/R106L/R155S/R180L/R86G/S101N/S121V/S35A/S48A/T118I/V36M/Y140S/Y91M); test: LC-MRM-MS quantitation of HLA ligands and co-purified abacavir from abacavir treated C1R.B*57:01 cells; format: cell-based; settings: for Category of abacavir impact on peptide abundance in the immunopeptidome: C1R.B*57:01, 35 µM abacavir 0-16 h or constant, linear regression of normalised abundance, three replicates; for Abacavir dependence: LC-MRM-MS detection, classification of the peptide based on abacavir dependency; for Linear regression slope: linear regression of LC-MRM-MS peptide abundance over abacavir treatment time
HLA-B*57:01 [2] = target: T1, HLA-B*57:01; parameters: method as in Illing et al., Nature 2012; settings: ref Illing et al., Nature 2012, cited from earlier work; for HLA-B*57:01 previous observation by LC-MS/MS, Abacavir treated: abacavir treated cells; for HLA-B*57:01 previous observation by LC-MS/MS, Untreated: untreated cells

Row | Sequence | Category of abacavir impact on peptide abundance in the immunopeptidome (HLA-B*57:01 [1]) | Abacavir dependence (HLA-B*57:01 [1]) | Linear regression slope (HLA-B*57:01 [1]) | HLA-B*57:01 previous observation by LC-MS/MS, Abacavir treated (HLA-B*57:01 [2]) | HLA-B*57:01 previous observation by LC-MS/MS, Untreated (HLA-B*57:01 [2])
1 | ITKTVVENI [HLA-B*57:01 ligand] | Minimal | Minimal | -0.0036 | + (+ (< 5% FDR)) | + (+ (< 5% FDR))
2 | KTFKDVGNLL [non-labelled HLA-B*57:01 ligand] | Facilitated | Facilitated | 0.0314 | + (+ (< 5% FDR)) | + (+ (< 5% FDR))
3 | RVLPPSHRVTW |  | Minimal | 0.0197 | + (+ (< 5% FDR)) | + (+ (< 5% FDR))
4 | ITNADSATRLL |  | Inhibited | -0.0254 |  | + (+ (< 5% FDR))
5 | GSFGKVFLV |  | Dependent | 0.0515 | + (+ (< 5% FDR)) | 
6 | KVVDVVRNL [HLA-B*57:01 ligand derived from MX1] | abacavir inhibited (abacavir inhibited (slope < −0.02)) | Inhibited | -0.0432 | # (# (> 5% FDR)) | + (+ (< 5% FDR))
7 | KSIARVLTV |  | Dependent | 0.0347 | # (# (> 5% FDR)) | 
8 | GTYQDVGSLNI |  | Dependent | 0.0429 | + (+ (< 5% FDR)) | 
9 | TTWKPLNPNSW |  | Minimal | 0.0009 | + (+ (< 5% FDR)) | + (+ (< 5% FDR))
10 | ATFKGIVRAI [non-labelled HLA-B*57:01 ligand] | Dependent | Dependent | 0.0504 | + (+ (< 5% FDR)) | 
11 | VTYPAKAKGTFI |  | Dependent | 0.0340 | + (+ (< 5% FDR)) | 
12 | FVKKLEHSW |  | Minimal | 0.0023 | + (+ (< 5% FDR)) | + (+ (< 5% FDR))
13 | RVDPAKGLFYF [non-labelled HLA-B*57:01 ligand] | Inhibited | Inhibited | -0.0245 | + (+ (< 5% FDR)) | + (+ (< 5% FDR))
14 | ILDPHVVLL |  |  | 0.0062 | + (+ (< 5% FDR)) | + (+ (< 5% FDR))
15 | LTSELITHI [HLA-B*57:01 ligand derived from MX1] | abacavir dependent (abacavir dependent (slope > 0.02, abundance = 0 at t = 0 in at least two of three replicates)) | Dependent | 0.0325 | + (+ (< 5% FDR)) | 
16 | KSYELPDGQVI |  | Facilitated | 0.0297 | + (+ (< 5% FDR)) | # (# (> 5% FDR))
17 | ITAGAHRLW |  | Minimal | 0.0136 | + (+ (< 5% FDR)) | + (+ (< 5% FDR))
